As usually defined, the IC50 is the midpoint of a concentration-inhibition curve. The term inhibition denotes the drop in the measured response relative to a control, in per cent.

This is an account of results in patent US20150241410A1, “INHIBITORS OF CENTRAL NERVOUS SYSTEM VASOACTIVE INHIBITORY PEPTIDE RECEPTOR 2” (The Trustees Of Columbia University In The City Of New York, priority 2012, published 2015).

Common to all, as to type: cell-based
Test [1] has as its target T1, VIPR2 (Homo sapiens, UniProt P41587).
T1 construct: expressed in transfected cells
T1 sequence (P41587 24-438): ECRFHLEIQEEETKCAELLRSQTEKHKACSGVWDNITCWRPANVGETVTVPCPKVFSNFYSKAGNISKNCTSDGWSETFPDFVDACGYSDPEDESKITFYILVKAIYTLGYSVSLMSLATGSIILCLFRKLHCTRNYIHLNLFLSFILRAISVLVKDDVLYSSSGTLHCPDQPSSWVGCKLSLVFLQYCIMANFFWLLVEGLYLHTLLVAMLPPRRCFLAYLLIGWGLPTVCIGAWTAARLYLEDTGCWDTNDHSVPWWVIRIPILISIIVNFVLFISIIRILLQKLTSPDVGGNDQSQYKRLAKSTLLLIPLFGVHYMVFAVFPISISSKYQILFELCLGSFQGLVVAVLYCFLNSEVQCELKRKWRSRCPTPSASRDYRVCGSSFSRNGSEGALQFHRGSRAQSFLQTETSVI
In words: BRET-based VIPR2 activation assay (CAMYEL cAMP sensor, CHO cells, VIP background). Conditions: for IC50: Table 3, read-out: IC50 (from BRET). As to the method: FIG. 5A-B. Results of BRET-based VIPR2 activation assays in cells expressing both the VIPR2 receptor and CAMYEL (see FIG. 1A for schematic). a) Inhibitory dose-response curves on treatment of CHO cells with increasing concentrations of a batch of antagonists against a background of VIP activation (VIP=5 nM).
In such a system, a detector cell is used which expresses both the VIPR2 receptor and “CAMYEL,” a YFP-Epac-RLuc8 BRET sensor construct. This construct includes Epac1, a guanine nucleotide exchange factor activated by direct binding of cAMP, fused with an enhanced YFP and Renilla luciferase 8 (Rluc8) allowing BRET upon cAMP-induced conformational changes (Jiang et al., 2007, J Biol Chem. 282:10576-10584). In response to elevated cAMP levels, there is a conformational change in Epac and therefore a change in the proximity of the fused chromophores, Rluc8 and YFP, resulting in measurable energy transfer. Coexpression of this BRET construct with VIPR2. optionally tagged at the N-terminus with a signal peptide and FLAG epitope (SF-VIPR2), for example in HEK293 cells, allows for detection of a VIPR2-specific response to cAMP. BRET readout may be calculated by quantifying the ratio of the light emitted by the acceptor, YFP (λ=525 nm), over the emission from the donor, RLuc8 (λ=485 nm). The proximity of the donor and acceptor, and therefore the BRET ratio, decreases in the presence of cAMP. In non-limiting specific embodiments, a stable cell line may be generated for this assay using the Flp-In T-Rex system in HEK293 cells. This system allows site-specific single copy integration of the gene of interest and control of expression levels using the Tet-repressor site making receptor expression tetracycline-inducible. For example, a CAMYEL and VIPR2 expressing line may be induced with 0.01 μg/ml tetracycline, then, 24 hours later cells may be collected and distributed into 96-well plates. After treatment with candidate inhibitor compound, for example at 5, 1 and 0.5 μM concentrations, cells may be incubated with the light emitting luciferin, coelenterazine H, for 5 min and incubated for 5 min with VIP at increasing concentrations, for example ranging from 100 pM to 10 μM. The fluorescence and luminescence may then be quantified, for example using a PHERAstar (BMG) plate reader. […] Alternatively, analogous experiments may be performed using human cells harvested from a patient having a VIPR2 copy number variation, for example (but not by way of limitation) pluripotent stem cells prepared from such a patient and then transfected with a CAMYEL construct.
(§1) A series of compounds were prepared using a synthetic method analogous to that set forth in Scheme 1, above, and then tested for their ability to inhibit VIP-induced cAMP elevation and β-arrestin recruitment, as described herein (Discoverx Corporation, Fremont, Calif., US). Compound activities were also tested in a BRET-based assay, as described herein. The results are shown below in Tables 1-4, above.
Numerous cellular assays were developed that were able to detect VIP responses absent of interference from non-specific vasopressin receptors using this CHO based system. VIPR2 is a Gs coupled receptor. Activation of VIPR2 by VIP leads to both an elevation in cAMP signaling and the recruitment of β-arrestin. A variety of combinations can be transiently transfect into these CHO cells for the assessment of cellular responses to VIP. For the BRET readout CHO cell lines expressing an YFP-Epac-RLuc8 (CAMYEL) BRET sensor were used to detect changes in cAMP. This construct includes Epac1, a guanine nucleotide exchange factor activated by direct binding of cAMP, fused to an enhanced YFP and RLuc8 allowing a change in BRET upon cAMP-induced conformational changes. The key for medium to high throughput screening assays is the use of stable cell lines allowing the continuous assaying of multiple compounds with the ability to generate large numbers of cells for rapid use. […]
A general note: BRET reads energy transfer from a luciferase to a nearby fluorophore.

For test [2], the target named is T1, VIPR2. In words: Inhibition of VIP-induced cAMP elevation (% Activity).
Source text: In a further non-limiting embodiment of the invention, the ability of a compound to inhibit VIPR2 and […] may be measured using a Homogeneous Time-Resolved Fluorescence (“HTRF® assay; Cisbio Bioassays) as used in Chu et al., 2010, Molecular Pharmacol. 7795-101. In a method as used in Chu et al., 2010, Molecular Pharmacol. 7795-101, HEK293 cells may be transfected with nucleic acid encoding VIPR2, for example human VIPR2 (“hVIPR2”), for example comprised in a vector such as pCDNA3.1 vector. Successful transformnnants may then be selected, for example using 800 μg/ml G418. Clonal stable cell lines may then be generated by limited dilution to single cells and then may be clonally expanded and tested for VIP-dependent cAMP response. For the cAMP assay, about 3000-15,000 cells (in about 4-25 μl) may be placed in a well of an assay plate. The next day, inhibitor or test inhibitor and VIP may be added in a volume about 1-2 percent of the initial volume. Assay plates may then be returned to a cell incubator for 30 min before addition of a one-half volume of cAMP conjugate and, relative to the amount of cAMP conjugate, an equal volume of anti-cAMP conjugate (Cisbio). After at least 1 h of room-temperature incubation, HTRF signal may be read, for example using Viewlux or EnVision (PerkinElmer Life and Analytical Sciences, Waltham, Mass.). The ratio of […] at 665 nm and 620 nm times 10,000 may be calculated and plotted.
(§2) A series of compounds were prepared using a synthetic method analogous to that set forth in Scheme 1, above, and then tested for their ability to inhibit VIP-induced cAMP elevation and β-arrestin recruitment.
as §1

In test [3] the target is T1, VIPR2. In words: Inhibition of VIP-induced β-arrestin recruitment (% Activity).
Source text: In a further non-limiting embodiment of the invention, the ability of a compound to inhibit VIPR2 GPCR activity may be tested, for example, using the PathHunter® eXpress 3-Arrestin GPCR system (Discoverx Corporation, Fremont, Calif., US), as used by Chu et al., 2010, Molecular Pharmacol. 7795-101. In this assay, J-Arrestin is fused to the “Enzyme Acceptor” (“EA”), an N-terminal deletion mutant of β-gal, and the GPCR of interest is fused to a smaller (42 amino acids), weakly complementing portion of the β-gal enzyme (termed “ProLink™”). In cells that stably express these fusion proteins, the interaction of β-Arrestin and the GPCR following ligand stimulation forces the complementation of the two β-gal fragments resulting in the formation of a functional enzyme that converts substrate to detectable signal. In the absence of an interaction between the GPCR and β-Arrestin, the enzyme activity is low due to the low affinity of the two enzyme fragments. For example, a nucleic acid encoding VIPR2, for example hVIPR2, may be cloned into the ProLink vector (DiscoveRx) for GPCR-ProLink fusion protein production. Parental HEK293 cells that stably express β-arrestin2-β-gal-EA fusion protein (DiscoveRx) may be detached and transiently transfected with the VIPR2-containing vector using Fugene6 transfection reagent in suspension mode. Transfected cells in assay medium may be plated into test plates, for example at 15,000 cells/25 μl/well. After overnight incubation, 500 n1 of an inhibitor or test inhibitor may be introduced into the test plate followed by 2 h incubation at 37° C., 5% CO2. Flash detection reagents may be added at 12.5 μl/well. After 5 min to 1 h of room-temperature incubation, the cell plates may be read on CLIPR (PerkinElmer Life and Analytical Sciences) or Acquest (Molecular Devices, Sunnyvale, Calif.) for luminescence signal.
as §2, §1
A general note: Activated receptors often draw arrestin, which recruitment assays turn into a signal.

Structures are written as SMILES. “Also recorded” adds a separate entry of the source.

As to `O=C(N[C@H]1c2ccccc2C[C@H]1O)[C@H](Cc1ccccc1)C[C@H](O)CNS(=O)(=O)c1ccc(OC(F)(F)F)cc1` [Compound X112], the IC50 in test [1] came to 152 µM.

Regarding `O=C(N[C@H]1c2ccccc2C[C@H]1O)[C@H](Cc1ccccc1)C[C@H](O)CNS(=O)(=O)c1ccc([N+](=O)[O-])cc1` [Compound 1, reference compound], the “shift of VIP dose-response curve” value in test [1] (increasing doses of compound (FIG. 1C)) is on record as “rightward shift”.

As for `CCCOc1ccc(S(=O)(=O)NC[C@@H](O)C[C@@H](Cc2ccccc2)C(=O)N[C@H]2c3ccccc3C[C@H]2O)cc1` [Compound X118], the IC50 in test [1] was determined as 4.2 µM.

Regarding `O=C(N[C@H]1c2ccccc2C[C@H]1O)[C@H](Cc1ccccc1)C[C@H](O)CNS(=O)(=O)c1ccc(C(F)(F)F)cc1` [F], the “VIPR2 inhibition in BRET-based assay, in words” value in test [1] (compared with Compound 1 or other compounds (FIG. 1C, FIG. 5B)) was “greater activity than Compound 1; also recorded: greater effect on VIPR2 inhibition than Compound 1”.

Regarding `Cc1ccc(S(=O)(=O)NC[C@@H](O)C[C@@H](Cc2ccccc2)C(=O)N[C@H]2c3ccccc3C[C@H]2O)cc1C` [Compound X116], the IC50 in test [1] came to 13.3 µM.

Consider `O=C(N[C@H]1c2ccccc2C[C@H]1O)[C@H](Cc1ccccc1)C[C@H](O)CNS(=O)(=O)c1ccc(C(=O)N2CCCCC2)cc1` [Compound X101], for which, in test [2] (Batch 3), the inhibition at 0.5 µM was -5.3%.

Consider `CCC(C)c1ccc(S(=O)(=O)NC[C@@H](O)C[C@@H](Cc2ccccc2)C(=O)N[C@H]2c3ccccc3C[C@H]2O)cc1` (stereo partly shown) [Compound X117], for which the IC50 in test [1] was 152 µM.

For the compound `O=C([C@H](Cc1ccccc1)C[C@H](O)CNS(=O)(=O)c1ccc([N+](=O)[O-])cc1)N1CCOCC1` [Compound B9A], the inhibition at 0.5 µM in test [2] (Batch 2) was found to be 3.8%.

As for `CCC(=O)Nc1ccc(S(=O)(=O)NC[C@@H](O)C[C@@H](Cc2ccccc2)C(=O)N[C@H]2c3ccccc3C[C@H]2O)cc1` [Compound X091], in test [3] (Batch 3), the inhibition at 0.5 µM was found to be 3.4%.

Take `CCCc1ccc(S(=O)(=O)NC[C@@H](O)C[C@@H](Cc2ccccc2)C(=O)N[C@H]2c3ccccc3C[C@H]2O)cc1` [Compound X113]: the IC50 in test [1] was 4.2 µM.

Take `CS(=O)(=O)c1ccc(S(=O)(=O)NC[C@@H](O)C[C@@H](Cc2ccccc2)C(=O)N[C@H]2c3ccccc3C[C@H]2O)cc1` [Compound X111]: in test [1], the IC50 came out at 13.3 µM.

Take `CCC(C)Oc1ccc(S(=O)(=O)NC[C@@H](O)C[C@@H](Cc2ccccc2)C(=O)N[C@H]2c3ccccc3C[C@H]2O)cc1` (stereo partly shown) [Compound X120]: in test [1], the IC50 is 45.8 µM.

Compound `O=C(NC1CCCc2ccccc21)[C@@H](Cc1ccccc1)C[C@H](O)CNS(=O)(=O)c1ccc([N+](=O)[O-])cc1` (stereo partly shown) [Compound B13B] showed a % activity (β-arrestin recruitment) at 1 µM in test [3] (1 μM, Batch 2) of 5.9%.

Consider `O=C([C@@H](Cc1ccccc1)C[C@H](O)CNS(=O)(=O)c1ccc([N+](=O)[O-])cc1)N1CCOCC1` [Compound B9B], for which, in test [2] (1 μM, Batch 2), the inhibition at 1 µM is -10.4%.

On to `COc1cc(C(=O)NC[C@@H](O)C[C@@H](Cc2ccccc2)C(=O)N[C@H]2c3ccccc3C[C@H]2O)cc(OC)c1OC` [H], for which, in test [3] (1 μM, Batch 1), the inhibition at 1 µM was determined as 3.2%.

For `O=C([C@@H](Cc1ccccc1)C[C@H](O)CNS(=O)(=O)c1ccc([N+](=O)[O-])cc1)N1CCCCC1` [Compound B18B], the inhibition at 0.5 µM in test [3] (Batch 2) was 9.5%.
